According to PubChem BioAssay (NCI):
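How tested: cells in 96-well plates exposed to compound for 48 hours at five concentrations. TGI denotes the concentration required for complete inhibition of growth.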

Tests used:
Assay in all cases: NCI tumour cell line growth inhibition, 48 h
HOP-92 NSCLC = system: HOP-92 NSCLC
HL-60(TB) leukemia = system: HL-60(TB) leukemia
SN12C renal = system: SN12C renal
NCI-H226 lung = system: NCI-H226 lung
HT29 colon = system: HT29 colon
IGROV1 ovarian = system: IGROV1 ovarian
NCI-H522 lung = system: NCI-H522 lung
A498 renal = system: A498 renal
SK-MEL-5 melanoma = system: SK-MEL-5 melanoma
ACHN renal = system: ACHN renal
OVCAR-4 ovarian = system: OVCAR-4 ovarian
NCI-H23 lung = system: NCI-H23 lung
MALME-3M melanoma = system: MALME-3M melanoma
SNB-75 CNS = system: SNB-75 CNS
MCF7 breast = system: MCF7 breast
K-562 leukemia = system: K-562 leukemia
NCI/ADR-RES ovarian = system: NCI/ADR-RES ovarian

SMILES	TGI (HOP-92 NSCLC) [µM]	TGI (HL-60(TB) leukemia) [µM]	TGI (SN12C renal) [µM]	TGI (NCI-H226 lung) [µM]	TGI (HT29 colon) [µM]	TGI (IGROV1 ovarian) [µM]	TGI (NCI-H522 lung) [µM]	TGI (A498 renal) [µM]	TGI (SK-MEL-5 melanoma) [µM]	TGI (ACHN renal) [µM]	TGI (OVCAR-4 ovarian) [µM]	TGI (NCI-H23 lung) [µM]	TGI (MALME-3M melanoma) [µM]	TGI (SNB-75 CNS) [µM]	TGI (MCF7 breast) [µM]	TGI (K-562 leukemia) [µM]	TGI (NCI/ADR-RES ovarian) [µM]
CCCCNC(=NCc1ccccc1)NC#N	> 100	> 100	> 100	> 100	> 100	> 100	> 100	> 100	> 100	> 100	> 100	> 100	> 100	> 100			
COc1cccc(C=C2N=C(c3ccccc3)N(n3c(-c4ccccc4)nc4ccccc4c3=O)C2=O)c1		59.2	> 100	> 100	> 100	> 100	62.1	> 100	> 100	> 100		> 100	> 100	> 100	> 100	> 100	
CCOC(=O)C(/C(=N\NC(=O)OC)C(=O)Nc1cc(OC)ccc1OC)c1cnc2ccccc2n1 (centres undefined)	> 100	> 100	> 100	> 100	> 100	> 100	> 100	> 100	> 100	> 100	> 100	> 100	> 100	> 100		> 100	
C[C@@H]1OC2(O)[C@H]3CCCN3S(=O)(=O)CCN2C1=O (some centres undefined)	> 100	> 100	> 100	> 100	> 100	> 100	> 100	> 100	> 100	> 100	> 100	> 100	> 100	> 100		> 100	
COc1cc(OC)c2c(=O)c3c([N+](=O)[O-])cccc3n(C)c2c1	> 100	> 100	> 100	> 100	> 100	> 100	> 100	> 100	> 100	> 100	> 100	> 100	> 100	> 100		> 100	
O=C(N/N=C(/c1nc2ccc([N+](=O)[O-])cc2[nH]c1=O)C(O)c1ccc([N+](=O)[O-])cc1)c1ccncc1 (centres undefined)	> 100	> 100	> 100	> 100	> 100	> 100	> 100	> 100	> 100	> 100	> 100	> 100	> 100	> 100		> 100	
Oc1cc(CN2CCOCCOCCOCCOCC2)c(O)cc1CN1CCOCCOCCOCCOCC1	49.7	52.4		> 85	> 73.3	> 100	31.6	> 100	> 100	> 59.2	34	> 100		> 100		> 75.2	
O=C1NC(=S)NC(=O)C1=Cc1ccc(-c2ccccc2)cc1	> 100		> 100	> 100	> 100	> 100			> 100	> 100	> 100	> 100	> 100		> 100	> 100	> 100
C=C1C(=O)O[C@H]2C/C(C)=C/CC[C@]3(C)CCC[C@](C)(CC[C@@H]12)O3	15.2		34.2	27.7	15.2	14.5	13		13.8	17.2	43.7	27.2		43.6	49.4	18.8	15.8
C/C(=N/NC(=O)C[n+]1ccccc1)C(CN(CC(C)C)CC(C)C)C(=O)Nc1ccc(C)cc1C (centres undefined)	> 100	> 100	> 100		> 100	> 100	> 100	92.9	> 100	> 100	> 100	> 100	> 100			> 100	
CCc1[nH]c(=O)c2oc3cc4ccccc4cc3c2c1C(=O)O	> 10	> 10	> 10	> 10	> 10	> 10	> 10			> 10	> 10		> 10	> 10			> 10
C[C@@H]1O[C@]2(O)[C@@H]3CCCN3S(=O)(=O)CCN2C1=O	> 100	> 100	> 100	> 100	> 100	> 100	> 100	> 100	> 100	> 100	> 100	> 100	> 100	> 100		> 100	
C[C@@]1(Cc2ccccc2)C(=O)N2[C@@H](CO)C(c3ccccc3)O[C@]2(C)c2ccccc21 (some centres undefined)	> 100	> 100		> 100		> 100	> 100		> 100	> 100	> 100	> 100		> 100		> 100	
CC12C(=C(C#N)C(=N)N1c1ccc(Cl)c(Cl)c1)C=C(O)CC2SCCS(=O)(=O)O (centres undefined)	> 100	> 100	> 100	> 100	> 100	> 100	> 100	> 100	> 100	> 100	> 100	> 100		> 100		> 100	
COC(=O)C1=C(OC(=O)/C=C/c2ccc(Cl)cc2)C(C(=O)OC)[C@]2(O)[C@@H](C(=O)OC)[C@H]1C[C@@H](c1ccccc1)[C@@H]2C(=O)OC (some centres undefined)	7.73	23.7	> 29.5	18.6	> 100	> 25.9	5.83	44.2	12.7	> 100	> 100	> 25.1	20.4	> 100		> 100	> 28.8
